Like-named read-outs stand apart in the source and are kept apart here.
Tests used:
[1] = Safety of intranasal naloxone: adverse events, nasal irritation, vital signs, ECG (Study 2)
[2] = tested on: rat; details: intravenous; cited from earlier work
[3] = clinical; details: human, plasma; for AUC(0-t): AUC0-t; for AUC(0-t) / AUC(0-inf) / Cmax: geometric mean (CV %); for AUC(0-inf): AUC0-∞; for Tmax: Table 13
[4] = Safety of intranasal naloxone: nasal irritation, vital signs, ECG, clinical laboratory (Study 1); format: in vivo, human
Experimental: These vital signs and temperature were also measured at screening, clinic intake, one day after each dosing session and at follow-up. […] AEs were recorded from the start of study-drug administration until clinic discharge. […] Clinical laboratory measurements were done prior to the first drug administration and on the day of clinic release.
Statistical Analysis of Adverse Events: AEs were coded using the Medical Dictionary for Regulatory Activities (MedDRA), version 19. Preferred terms and are grouped by system, organ, class (SOC) designation. AEs are presented as a listing including the start date, stop date, severity, relationship, outcome, and duration.

[5] = tested on: mouse; details: intravenous; cited from earlier work
[6] = for Cmax/D: GLSM, dose adjustment to 0.4 mg; for λz / Frel: mean
[7] = for Lambda z: harmonic mean; for Tmax: median; for λz: geometric mean (CV %)
[8] = tested on: newborn rats; details: acute subcutaneous; cited from earlier work
[9] = im, 0.4 mg, One Injection 0.4 mg IM
[10] = other: intranasal (IN), 2 mg, One Spray 2% (w/v) IN
[11] = other: intranasal (IN), 4 mg, One Spray 4% (w/v) IN
[12] = other: intranasal, 2 mg, One Spray 2% (w/v) IN
[13] = other: intranasal, 4 mg, One Spray 4% (w/v) IN
[14] = other: intranasal, 4 mg, Two Sprays 2% (w/v) IN
[15] = other: intranasal, 8 mg, Two Sprays 4% (w/v) IN

C=CCN1CC[C@]23c4c5ccc(O)c4O[C@H]2C(=O)CC[C@@]3(O)[C@H]1C5 [naloxone, 17-allyl-4,5α-epoxy-3,14-dihydroxymorphinan-6-one]
adverse events: Dizziness ([1]; 0.4 mg Intramuscular Dose): 1 | adverse events: Headache ([1]; 0.4 mg Intramuscular Dose): 1 | adverse events: Nausea ([1]; 0.4 mg Intramuscular Dose): 1 | Events related to nasal irritation: Edema ([1]; 2 mg (2% w/v, one spray)): 2 | Events related to nasal irritation: Erythema ([1]; 2 mg (2% w/v, one spray)): 4 | Events related to nasal irritation: Other ([1]; 2 mg (2% w/v, one spray)): 1 | Events related to nasal irritation: Total ([1]; 2 mg (2% w/v, one spray)): 7 | adverse events: Nasal Pain ([1]; 2 mg (2% w/v, one spray)): 1 | Events related to nasal irritation: Edema ([1]; 4 mg (2% w/v, two sprays)): 0 | Events related to nasal irritation: Erythema ([1]; 4 mg (2% w/v, two sprays)): 1 | Events related to nasal irritation: Other ([1]; 4 mg (2% w/v, two sprays)): 0 | Events related to nasal irritation: Total ([1]; 4 mg (2% w/v, two sprays)): 1 | Events related to nasal irritation: Edema ([1]; 4 mg (4% w/v, one spray)): 2 | Events related to nasal irritation: Erythema ([1]; 4 mg (4% w/v, one spray)): 1 | Events related to nasal irritation: Other ([1]; 4 mg (4% w/v, one spray)): 0 | Events related to nasal irritation: Total ([1]; 4 mg (4% w/v, one spray)): 3 | Events related to nasal irritation: Edema ([1]; 8 mg (4% w/v, two sprays)): 1 | Events related to nasal irritation: Erythema ([1]; 8 mg (4% w/v, two sprays)): 0 | Events related to nasal irritation: Other ([1]; 8 mg (4% w/v, two sprays)): 0 | Events related to nasal irritation: Total ([1]; 8 mg (4% w/v, two sprays)): 1 | adverse events: Headache ([1]; 8 mg (4% w/v, two sprays)): 1 | relation of nasal irritation to dose ([1]; IN 2 to 8 mg): did not appear to be positively related to the dose | QTcF prolongation ([1]; Study 2): no evidence of QTcF prolongation | vital signs, ECG, and clinical laboratory parameters ([1]; after naloxone administration, Study 2): did not reveal any clinically noteworthy changes | LD50 [2]: 109 ± 4 mg/kg | AUC(0-t) [3, 9]: 1.72 ng·h/mL | AUC(0-inf) [3, 9]: 1.76 ng·h/mL | Cmax [3, 9]: 0.877 ng/mL | Tmax [3, 9]: 22.8 min | AUC(0-t) [3, 10]: 4.51 ng·h/mL | AUC(0-inf) [3, 10]: 4.56 ng·h/mL | AUC(0-t) [3, 11]: 7.87 ng·h/mL | AUC(0-inf) [3, 11]: 7.95 ng·h/mL | AUC(0-inf) ([3]; other: intranasal (IN), 8 mg, Two Sprays 4% (w/v) IN): 15.5 ng·h/mL | Cmax [3, 12]: 2.92 ng/mL | Tmax [3, 12]: 19.8 min | Cmax [3, 13]: 4.83 ng/mL | Cmax [3, 14]: 6.2 ng/mL | Tmax [3, 13]: 30 min | Tmax [3, 14]: 19.8 min | Cmax [3, 15]: 9.7 ng/mL | Tmax [3, 15]: 19.8 min | pharyngeal pain ([4]; 2 mg IN dose): One subject experienced mild transient (over 3 min) pharyngeal pain | nasal irritation (erythema, edema, erosion) in the nasal cavity ([4]; IN 2 and 4 mg to both nostrils): No erythema, edema, erosion, or other sign was observed | QTcF prolongation ([4]; Study 1): no evidence of QTcF prolongation | vital signs, ECG, and clinical laboratory parameters ([4]; after naloxone administration, Study 1): did not reveal any clinically noteworthy changes | LD50 [5]: 150 ± 5 mg/kg | Cmax/D ([6]; 0.4 mg IM): 0.755 ng/mL | λz ([6]; 0.4 mg IM): 0.593 h⁻¹ | Frel ([6]; 2 mg IN vs IM): 0.571 | Cmax/D ([6]; 2 mg IN): 0.510 ng/mL | λz ([6]; 2 mg IN): 0.588 h⁻¹ | Frel ([6]; 4 mg IN vs IM): 0.475 | Cmax/D ([6]; 4 mg IN): 0.466 ng/mL | λz ([6]; 4 mg IN): 8.0 h⁻¹ | Lambda z ([7]; 0.4 mg IM, Female): 0.6140 h⁻¹ | Lambda z ([7]; 0.4 mg IM, Male): 0.5152 h⁻¹ | Tmax ([7]; 0.4 mg IM, Male): 30 min | Lambda z ([7]; 0.4 mg IM): 0.5534 h⁻¹ | Lambda z ([7]; One 2% (w/v) IN, Female): 0.3978 h⁻¹ | Lambda z ([7]; One 2% (w/v) IN, Male): 0.3492 h⁻¹ | Lambda z ([7]; One 4% (w/v) IN, Female): 0.2946 h⁻¹ | Tmax ([7]; One 4% (w/v) IN, Female): 30 min | Lambda z ([7]; One 4% (w/v) IN, Male): 0.3386 h⁻¹ | Tmax ([7]; One 4% (w/v) IN, Male): 30 min | λz ([7]; One Injection 0.4 mg IM): 0.557 (25.9) 1/h | λz ([7]; One Spray 2% (w/v) IN): 0.382 (34.9) 1/h | λz ([7]; One Spray 4% (w/v) IN): 0.334 (29.5) 1/h | Lambda z ([7]; Two 2% (w/v) IN, Female): 0.2796 h⁻¹ | Lambda z ([7]; Two 2% (w/v) IN, Male): 0.3122 h⁻¹ | Lambda z ([7]; Two 4% (w/v) IN, Female): 0.2994 h⁻¹ | Lambda z ([7]; Two 4% (w/v) IN, Male): 0.3407 h⁻¹ | λz ([7]; Two Sprays 2% (w/v) IN): 0.310 (34.5) 1/h | λz ([7]; Two Sprays 4% (w/v) IN): 0.330 (32.4) 1/h | Lambda z ([7]; one spray 2 mg 2% (w/v) IN): 0.3685 h⁻¹ | Lambda z ([7]; two sprays 4 mg 2% (w/v) IN): 0.2973 h⁻¹ | Lambda z ([7]; two sprays 8 mg 4% (w/v) IN): 0.3217 h⁻¹ | LD50 (95% CL) [8]: 260 (228-296) mg/kg

— patent US10085937B2, “Nasal drug products and methods of their use” (Adapt Pharma Limited, priority 2014, dated 2018)
